Tests used:
Format in all cases: functional
[1] = tested on: NUGC-3; assay: Antiproliferative activity against human NUGC3 cells at 3 uM by SRB assay
[2] = tested on: ACHN; assay: Antiproliferative activity against human ACHN cells by SRB assay
[3] = tested on: PC-3; assay: Antiproliferative activity against human PC3 cells at 3 uM by SRB assay
[4] = tested on: PC-3; assay: Antiproliferative activity against human PC3 cells at 0.1 uM by SRB assay
[5] = tested on: ACHN; assay: Antiproliferative activity against human ACHN cells at 0.3 uM by SRB assay
[6] = tested on: ACHN; assay: Antiproliferative activity against human ACHN cells at 0.1 uM by SRB assay
[7] = tested on: HCT-15; assay: Antiproliferative activity against human HCT15 cells at 0.3 uM by SRB assay
[8] = tested on: NUGC-3; assay: Antiproliferative activity against human NUGC3 cells at 1 uM by SRB assay
[9] = tested on: ACHN; assay: Antiproliferative activity against human ACHN cells at 3 uM by SRB assay
[10] = tested on: HCT-15; assay: Antiproliferative activity against human HCT15 cells by SRB assay
[11] = tested on: NUGC-3; assay: Antiproliferative activity against human NUGC3 cells at 0.3 uM by SRB assay
[12] = tested on: NUGC-3; assay: Antiproliferative activity against human NUGC3 cells at 10 uM by SRB assay
[13] = tested on: PC-3; assay: Antiproliferative activity against human PC3 cells at 10 uM by SRB assay
[14] = tested on: MDA-MB-231; assay: Antiproliferative activity against human MDA-MB-231 cells at 0.1 uM by SRB assay
[15] = tested on: NCI-H23; assay: Antiproliferative activity against human NCI-H23 cells at 0.3 uM by SRB assay
[16] = tested on: PC-3; assay: Antiproliferative activity against human PC3 cells at 0.3 uM by SRB assay
[17] = tested on: HCT-15; assay: Antiproliferative activity against human HCT15 cells at 3 uM by SRB assay
[18] = tested on: MDA-MB-231; assay: Antiproliferative activity against human MDA-MB-231 cells at 10 uM by SRB assay
[19] = tested on: NCI-H23; assay: Antiproliferative activity against human NCI-H23 cells at 0.1 uM by SRB assay
[20] = tested on: NCI-H23; assay: Antiproliferative activity against human NCI-H23 cells at 3 uM by SRB assay
[21] = tested on: PC-3; assay: Antiproliferative activity against human PC3 cells by SRB assay
[22] = tested on: HCT-15; assay: Antiproliferative activity against human HCT15 cells at 10 uM by SRB assay
[23] = tested on: PC-3; assay: Antiproliferative activity against human PC3 cells at 1 uM by SRB assay
[24] = tested on: MDA-MB-231; assay: Antiproliferative activity against human MDA-MB-231 cells at 3 uM by SRB assay
[25] = tested on: ACHN; assay: Antiproliferative activity against human ACHN cells at 1 uM by SRB assay
[26] = tested on: NCI-H23; assay: Antiproliferative activity against human NCI-H23 cells at 1 uM by SRB assay
[27] = tested on: NUGC-3; assay: Antiproliferative activity against human NUGC3 cells at 0.1 uM by SRB assay
[28] = tested on: HCT-15; assay: Antiproliferative activity against human HCT15 cells at 1 uM by SRB assay
[29] = tested on: MDA-MB-231; assay: Antiproliferative activity against human MDA-MB-231 cells at 0.3 uM by SRB assay
[30] = tested on: NCI-H23; assay: Antiproliferative activity against human NCI-H23 cells by SRB assay
[31] = tested on: MDA-MB-231; assay: Antiproliferative activity against human MDA-MB-231 cells at 1 uM by SRB assay
[32] = tested on: NCI-H23; assay: Antiproliferative activity against human NCI-H23 cells at 10 uM by SRB assay
[33] = tested on: MDA-MB-231; assay: Antiproliferative activity against human MDA-MB-231 cells by SRB assay
[34] = tested on: ACHN; assay: Antiproliferative activity against human ACHN cells at 10 uM by SRB assay
[35] = tested on: HCT-15; assay: Antiproliferative activity against human HCT15 cells at 0.1 uM by SRB assay
[36] = tested on: NUGC-3; assay: Antiproliferative activity against human NUGC3 cells by SRB assay

GI50 [2]	GI50 [10]	Structure (SMILES)	growth, % of control at 3 µM [1]	growth, % of control at 3 µM [3]	growth, % of control at 0.1 µM [4]	growth, % of control at 0.3 µM [5]	growth, % of control at 0.1 µM [6]	growth, % of control at 0.3 µM [7]	growth, % of control at 1 µM [8]	growth, % of control at 3 µM [9]	growth, % of control at 0.3 µM [11]	growth, % of control at 10 µM [12]	growth, % of control at 10 µM [13]	growth, % of control at 0.1 µM [14]	growth, % of control at 0.3 µM [15]	growth, % of control at 0.3 µM [16]	growth, % of control at 3 µM [17]	growth, % of control at 10 µM [18]	growth, % of control at 0.1 µM [19]	growth, % of control at 3 µM [20]	also measured
350 nM	1980 nM	C=CC[N+](CC)(CC)CCN(C)C(=O)CCCCCCCCCCCCCCC	5.3%	-14.3%	92.9%	87.7%	115%	87.9%	22.9%	8.1%	76.9%	-6.2%	-19.6%	96.1%	54.8%	81.8%	55.2%	-6.4%	81.2%	10.7%	GI50 [21]: 200 nM; growth, % of control at 10 µM [22]: 32%; growth, % of control at 1 µM [23]: 0.8%; growth, % of control at 3 µM [24]: 21%; growth, % of control at 1 µM [25]: 30.2%; growth, % of control at 1 µM [26]: 19.3%; growth, % of control at 0.1 µM [27]: 101%; growth, % of control at 1 µM [28]: 78.6%; growth, % of control at 0.3 µM [29]: 92.5%; GI50 [30]: 170 nM; growth, % of control at 1 µM [31]: 38.7%; growth, % of control at 10 µM [32]: -15%; GI50 [33]: 440 nM; growth, % of control at 10 µM [34]: -18.9%; growth, % of control at 0.1 µM [35]: 86.1%; GI50 [36]: 270 nM
270 nM	610 nM	CCCCCCCCCCCCCCCC(=O)N(C)CC[N+](CC)(CC)CC	-43.8%	-5.6%	87.4%	78.5%	106%	83.5%	-14.6%	-15.6%	53.4%	-50%	-24.2%	94.3%	84.9%	71.9%	24.6%	-17.3%	84%	45.2%	GI50 [21]: 230 nM; growth, % of control at 10 µM [22]: 3.4%; growth, % of control at 1 µM [23]: 12.6%; growth, % of control at 3 µM [24]: 12.6%; growth, % of control at 1 µM [25]: 16.7%; growth, % of control at 1 µM [26]: 72.7%; growth, % of control at 0.1 µM [27]: 99.2%; growth, % of control at 1 µM [28]: 56.7%; growth, % of control at 0.3 µM [29]: 80.4%; GI50 [30]: 1110 nM; growth, % of control at 1 µM [31]: 33.1%; growth, % of control at 10 µM [32]: 8.5%; GI50 [33]: 360 nM; growth, % of control at 10 µM [34]: -42.5%; growth, % of control at 0.1 µM [35]: 89.1%; GI50 [36]: 160 nM
580 nM	1010 nM	CCCCCCCCCCCCCCCC(=O)N(C)CC[N+](C)(C)CC	9.7%	-14.5%	90%	95%	110%	85.9%	38.2%	10.2%	91.8%	-11.1%	-18.9%	102%	84.4%	84%	37.8%	-4.7%	91.2%	30.6%	GI50 [21]: 250 nM; growth, % of control at 10 µM [22]: 17.8%; growth, % of control at 1 µM [23]: 10.8%; growth, % of control at 3 µM [24]: 21.9%; growth, % of control at 1 µM [25]: 46.3%; growth, % of control at 1 µM [26]: 53.8%; growth, % of control at 0.1 µM [27]: 99.1%; growth, % of control at 1 µM [28]: 70.5%; growth, % of control at 0.3 µM [29]: 101%; GI50 [30]: 580 nM; growth, % of control at 1 µM [31]: 59.1%; growth, % of control at 10 µM [32]: -9.2%; GI50 [33]: 660 nM; growth, % of control at 10 µM [34]: -14.5%; growth, % of control at 0.1 µM [35]: 93.4%; GI50 [36]: 410 nM
470 nM	> 10000 nM	C=CC[N+](C)(C)CCCN(C)C(=O)CCCCCCCCCCCCCCC	-13.9%	7.93%	98.5%	77.3%	81%	103%	28.1%	30%	92.8%	-30.4%	-11.9%	86.5%	94.7%	98%	81.2%	11.6%	93.2%	23.9%	GI50 [21]: 430 nM; growth, % of control at 10 µM [22]: 58%; growth, % of control at 1 µM [23]: 41.9%; growth, % of control at 3 µM [24]: 33.8%; growth, % of control at 1 µM [25]: 53.3%; growth, % of control at 1 µM [26]: 65.5%; growth, % of control at 0.1 µM [27]: 105%; growth, % of control at 1 µM [28]: 103%; growth, % of control at 0.3 µM [29]: 88.3%; GI50 [30]: 680 nM; growth, % of control at 1 µM [31]: 66%; growth, % of control at 10 µM [32]: -13.6%; GI50 [33]: 800 nM; growth, % of control at 10 µM [34]: -6.41%; growth, % of control at 0.1 µM [35]: 97.4%; GI50 [36]: 360 nM
